According to patent publication US10913736B2 (UNIVERSITY OF WASHINGTON, priority 2014, dated 2021):
Where “and” joins values, the source holds several entries; their conditions need not be identical. Equal entries are not always repeated. Where two headings read alike, the source gives them in different places.

What was measured:
[1] = biological target: MetRS (T. brucei) (Trypanosoma brucei brucei, UniProt Q38C91); assay: MetRS (T. brucei) ATP depletion assay using Kinase-Glo; type: biochemical
[2] = test system: T. brucei; assay: Growth inhibition assay of T. brucei cell cultures (Alamar Blue, 48 h); type: cell-based
[3] = Trypanosoma brucei; read-out: B) T. brucei EC50

Chain of MetRS (T. brucei) (Q38C91 entry or part of it): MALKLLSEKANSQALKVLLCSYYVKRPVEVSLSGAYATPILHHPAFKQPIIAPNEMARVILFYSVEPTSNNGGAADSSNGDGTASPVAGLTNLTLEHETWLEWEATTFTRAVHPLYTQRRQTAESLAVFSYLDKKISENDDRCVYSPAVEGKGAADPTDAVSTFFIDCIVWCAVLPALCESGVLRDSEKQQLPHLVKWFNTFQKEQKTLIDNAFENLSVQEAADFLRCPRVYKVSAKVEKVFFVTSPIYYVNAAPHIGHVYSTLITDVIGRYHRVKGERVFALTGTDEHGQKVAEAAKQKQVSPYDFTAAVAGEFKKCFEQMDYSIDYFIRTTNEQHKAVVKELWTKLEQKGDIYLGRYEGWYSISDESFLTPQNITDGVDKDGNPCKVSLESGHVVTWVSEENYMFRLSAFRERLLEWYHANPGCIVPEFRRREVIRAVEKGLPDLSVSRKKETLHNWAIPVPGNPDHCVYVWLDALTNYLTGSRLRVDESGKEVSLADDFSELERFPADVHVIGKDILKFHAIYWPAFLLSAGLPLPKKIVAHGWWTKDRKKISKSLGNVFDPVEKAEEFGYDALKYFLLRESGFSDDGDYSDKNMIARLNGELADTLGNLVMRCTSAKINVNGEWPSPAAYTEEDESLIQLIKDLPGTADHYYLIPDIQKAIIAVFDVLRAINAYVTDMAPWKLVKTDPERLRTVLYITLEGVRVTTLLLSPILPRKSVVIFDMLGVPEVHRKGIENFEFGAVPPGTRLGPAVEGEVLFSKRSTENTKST

Row | SMILES | IC50 [1] | EC50 [2, 3] [µM] | EC50 ([2]; read-out: B) T. brucei EC50) [µM]
1 | O=C(Cc1cc(Cl)cc(Cl)c1)N1CCC[C@@H](c2nc3cc(Cl)ccc3[nH]2)C1 [Compound 1757, (R)-1-(3-(5-chloro-1H-benzo[d]imidazol-2-yl)piperidin-1-yl)-2-(3,5-dichlorophenyl)ethanone] | 3.5 µM | > 10 | 
2 | Clc1cc(Cl)cc(CNC2CCCC(c3nc4ncccc4[nH]3)C2)c1 (stereo not shown) [Compound 1817, N-(3,5-dichlorobenzyl)-3-(1H-imidazo[4,5-b]pyridin-2-yl) cyclohexanamine] | > 10 µM | 2.06 | 
3 | O=C(CSc1nc2ccc(Cl)nc2[nH]1)NCc1cc(Cl)cc(Cl)c1 [Compound 1951, 2-({5-chloro-3H-imidazo[4,5-b]pyridin-2-yl}sulfanyl)-N-[(3,5-dichlorophenyl)methyl]acetamide] | 0.288 µM | 0.664 | 
4 | Clc1cc(Cl)c(OCC2CC2)c(CN[C@H]2CCCN(c3nc4nc(Cl)ccc4[nH]3)C2)c1 [Compound 1929, (S)-1-(5-chloro-1H-imidazo[4,5-b]pyridin-2-yl)-N-(3,5-dichloro-2-(cyclopropylmethoxy)benzyl)piperidin-3-amine] | 0.029 µM | 0.511 | 
5 | CC(=O)N(Cc1cc(Cl)cc(Cl)c1)[C@@H]1CCC[C@H](c2nc3nc(Cl)ccc3[nH]2)C1 [Compound 1859, N-((1R,3S)-3-(5-chloro-1H-imidazo[4,5-b]pyridin-2-yl)cyclohexyl)-N-(3,5-dichlorobenzyl)acetamide] | 1.43 µM | > 20 | 
6 | Clc1cc(Cl)cc(CN[C@H]2CCCN(C3=NCc4ccccc4N3)C2)c1 [Compound 1961] | 0.121 µM | 3.76 | 
7 | COc1cc(CN2CCC[C@H](c3nc4nc(Cl)ccc4[nH]3)C2)cc(OC)c1 [Compound 1872, (S)-5-chloro-2-(1-(3,5-dimethoxybenzyl)piperidin-3-yl)-1H-imidazo[4,5-b]pyridine] | > 10 µM | 8.34 | 
8 | O=C(Cc1ccc(Cl)cc1Cl)NCc1nc2cnc(Cl)cc2[nH]1 [Compound 1880, N-({6-chloro-1H-imidazo[4,5-c]pyridin-2-yl}methyl)-2-(2,4-dichlorophenyl)acetamide] | 0.214 µM | 8.4 | 
9 | CC(Cc1nc2c(Cl)cc(Cl)cc2[nH]1)NCc1cc(Cl)cc(Cl)c1 (stereo not shown) [Compound 1823, [1-(4,6-dichloro-1H-1,3-benzodiazol-2-yl)propan-2-yl][(3,5-dichlorophenyl)methyl]amine] | 2.29 µM | 4.56 | 
10 | Fc1ccc2[nH]c(C3CCCC(NCc4cc(Cl)cc(Cl)c4)C3)nc2c1 (stereo not shown) [Compound 1839, N-(3,5-dichlorobenzyl)-3-(5-fluoro-1H-benzo[d]imidazol-2-yl) cyclohexanamine] | 3.68 µM | 2.32 | 
11 | CC(=O)N(Cc1cc(Cl)cc(Cl)c1)C1CCCN(c2nc3nc(F)ccc3[nH]2)C1 (stereo not shown) [Compound 1887, N-(3,5-dichlorobenzyl)-N-(1-(5-fluoro-1H-imidazo[4,5-b]pyridin-2-yl)piperidin-3-yl)acetamide] | 6.66 µM | > 20 | 
12 | Clc1cc(Cl)cc(CO[C@H]2CCCN(c3nc4nc(Cl)ccc4[nH]3)C2)c1 [Compound 1898] | 0.196 µM | 8.8 | 
13 | O=C(NCc1nc2ccc(F)cc2[nH]1)OCCc1ccc(Cl)cc1Cl [Compound 1741, (6-Fluoro-1H-benzoimidazol-2-ylmethyl)-carbamic acid 2-(2,4-dichloro-phenyl)-ethyl ester] | 0.132 µM | 4.22 | 
14 | O=C(/C=C\Oc1ccc(Cl)cc1Cl)NCc1nc2ccccc2[nH]1 [Compound 1730, (Z)—N-((1H-benzo[d]imidazol-2-yl)methyl)-3-(2,4-dichlorophenoxy)acrylamide] | 0.142 µM | 0.723 | 
15 | O=C(CC(=O)Nc1ccc(Cl)cc1Cl)NCc1nc2ccccc2[nH]1 [Compound 1803, N1-((1H-benzo[d]imidazol-2-yl)methyl)-N3-(2,4-dichlorophenyl)malonamide] | > 10 µM | > 20 | 
16 | O=C(COc1ccc(Cl)cc1Cl)NCc1cc2ccccc2[nH]1 [Compound 1674, 2-(2,4-dichlorophenoxy)-N-(1H-indol-2-ylmethyl)acetamide] | 23 µM | > 20 | 
17 | O=C1CN(Cc2cc(Cl)cc(Cl)c2)CCN1Cc1nc2ccccc2[nH]1 [Compound 1748, 1-((1H-benzo[d]imidazol-2-yl)methyl)-4-(3,5-dichlorobenzyl)piperazin-2-one] | > 10 µM | > 10 | 
18 | O=C(Cc1cc(Cl)cc(Cl)c1)N1CCCC(c2nc3ccccc3[nH]2)C1 (stereo not shown) [Compound 1732, 1-(3-(1H-benzo[d]imidazol-2-yl)piperidin-1-yl)-2-(3,5-dichlorophenyl)ethanone] | 0.288 µM | > 5 | 
19 | Clc1cc(Cl)cc(CNC2CN(c3nc4nc(Cl)ccc4[nH]3)C2)c1 [Compound 1864, 1-{5-chloro-1H-imidazo[4,5-b]pyridin-2-yl}-N-[(3,5-dichlorophenyl)methyl]azetidin-3-amine] | 2.17 µM | > 20 | 
20 | Fc1ccc2nc(NCCCNc3ccc(Cl)cc3Cl)[nH]c2n1 [Compound 1956, N1-(2,4-dichlorophenyl)-N3-(5-fluoro-3H-imidazo[4,5-b]pyridin-2-yl)propane-1,3-diamine] | 0.325 µM | 1.55 | 
21 | CC(=O)N(Cc1cc(Cl)cc(Cl)c1)[C@@H]1CCC[C@H](c2nc3nc(F)ccc3[nH]2)C1 [Compound 1932, N-(3,5-dichlorobenzyl)-N-((1R,3S)-3-(5-fluoro-1H-imidazo[4,5-b]pyridin-2-yl)cyclohexyl)acetamide] | 0.518 µM | 8.91 | 
22 | CC(C)(CNCc1cc(Cl)cc(Cl)c1)CNc1nc2cccnc2[nH]1 [Compound 1641, N1-(3,5-dichlorobenzyl)-N3-(1H-imidazo[4,5-b]pyridin-2-yl)-2,2-dimethylpropane-1,3-diamine] | < 0.049 µM and 0.138 µM | 7.65 | 8.35
23 | CC(C)Oc1c(Cl)cc(Cl)cc1CN[C@H]1CCCN(c2nc3nc(Cl)ccc3[nH]2)C1 [Compound 1931, (S)-1-(5-chloro-1H-imidazo[4,5-b]pyridin-2-yl)-N-(3,5-dichloro-2-isopropoxybenzyl)piperidin-3-amine] | 0.305 µM | 1.7 | 
24 | O=C(Cc1cc2cc(Cl)cc(Cl)c2o1)NCc1nc2ccccc2[nH]1 [Compound 1756, N-((1H-benzo[d]imidazol-2-yl)methyl)-2-(5,7-dichlorobenzofuran-2-yl)acetamide] | 3.72 µM | > 10 | 
25 | Clc1cc(Cl)cc(CNC2CCCCN(c3nc4nc(Cl)ccc4[nH]3)C2)c1 (stereo not shown) [Compound 1903, 1-(5-chloro-1H-imidazo[4,5-b]pyridin-2-yl)-N-(3,5-dichlorobenzyl) azepan-3-amine] | 0.682 µM | 1.81 | 
26 | CC(=O)N(Cc1cc(Cl)cc(Cl)c1)C1CCCC(c2nc3cc(F)ccc3[nH]2)C1 (stereo not shown) [Compound 1860, N-(3,5-dichlorobenzyl)-N-(3-(5-fluoro-1H-benzo[d]imidazol-2-yl)cyclohexyl)acetamide] | 6.9 µM | 8.57 | 
27 | O=C(NCc1nc2ccc(Cl)nc2[nH]1)Nc1cc(Cl)cc(Cl)c1 [Compound 1890, 1-((5-chloro-1H-imidazo[4,5-b]pyridin-2-yl)methyl)-3-(3,5-dichlorophenyl)urea] | 0.078 µM | 6.22 | 
